Reference: publication PMC9358669, “Native metabolomics identifies the rivulariapeptolide family of protease inhibitors” (Nature Communications, 2022)
Where two headings read alike, the source gives them in different places.

How the values were obtained:
Chymotrypsin = molecular target: T1, Chymotrypsin (Bos taurus, UniProt P00766); assay: Chymotrypsin inhibition, fluorogenic substrate assay (Suc-Ala-Ala-Pro-Phe-AMC); format: biochemical; details: for Mean (RFU/s): Chymotrypsin; for fold increase in potency towards chymotrypsin: molassamide B (6) compared to molassamide (5)
T1 construct: purchased Sigma-Aldrich

Elastase = molecular target: T2, Elastase (Sus scrofa, UniProt P00772); assay: Elastase inhibition, fluorogenic substrate assay (MeOSuc-Ala-Ala-Pro-Val-AMC); format: biochemical, Sus domesticus; details: for IC50 / Mean (RFU/s): 40 min pre-incubation; for IC50: mean, n = 3; for Mean (RFU/s): Elastase
T2 construct: purchased Sigma-Aldrich
T2 sequence (P00772 27-266): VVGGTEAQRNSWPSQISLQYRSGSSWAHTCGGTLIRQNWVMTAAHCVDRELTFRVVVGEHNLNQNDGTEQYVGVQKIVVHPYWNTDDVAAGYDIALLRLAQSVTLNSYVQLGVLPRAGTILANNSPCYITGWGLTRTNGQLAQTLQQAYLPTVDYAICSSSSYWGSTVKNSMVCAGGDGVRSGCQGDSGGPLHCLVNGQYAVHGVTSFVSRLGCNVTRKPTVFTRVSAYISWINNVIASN

Proteinase K = molecular target: T3, Proteinase K (Parengyodontium album, UniProt P06873); assay: Proteinase K inhibition, fluorogenic substrate assay (Suc-Ala-Ala-Pro-Phe-AMC); format: biochemical, Tritirachium album; details: for IC50 / Mean (RFU/s): 40 min pre-incubation; for IC50: mean, n = 3; for Mean (RFU/s): Proteinase K
T3 construct: purchased Roche
T3 sequence (P06873 106-384): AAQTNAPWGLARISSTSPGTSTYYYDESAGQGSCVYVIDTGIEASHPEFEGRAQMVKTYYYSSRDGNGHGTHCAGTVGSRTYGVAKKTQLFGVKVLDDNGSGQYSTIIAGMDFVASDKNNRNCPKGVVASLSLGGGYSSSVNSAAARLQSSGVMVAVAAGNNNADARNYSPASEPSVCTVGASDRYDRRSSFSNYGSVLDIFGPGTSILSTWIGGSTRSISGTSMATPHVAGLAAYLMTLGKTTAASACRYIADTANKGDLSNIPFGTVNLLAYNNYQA

[1] = 40 min pre-incubation, mean, n = 3, read-out: IC50 Chymotrypsin
[2] = inhibitor concentration 0.0508053 nM, 40 min pre-incubation
[3] = inhibitor concentration 0.152416 nM, 40 min pre-incubation
[4] = inhibitor concentration 0.457247 nM, 40 min pre-incubation
[5] = inhibitor concentration 1.37174 nM, 40 min pre-incubation
[6] = inhibitor concentration 4.11523 nM, 40 min pre-incubation
[7] = inhibitor concentration 12.3457 nM, 40 min pre-incubation
[8] = inhibitor concentration 37.037 nM, 40 min pre-incubation
[9] = inhibitor concentration 111.111 nM, 40 min pre-incubation
[10] = inhibitor concentration 333.333 nM, 40 min pre-incubation
[11] = inhibitor concentration 1000 nM, 40 min pre-incubation
[12] = inhibitor concentration 3000 nM, 40 min pre-incubation
[13] = Supplementary Table 5, compounds of this study, read-out: Chymotrypsin IC50
[14] = inhibitor concentration 0.0508053 nM
[15] = inhibitor concentration 0.152416 nM
[16] = inhibitor concentration 0.457247 nM
[17] = inhibitor concentration 1.37174 nM
[18] = inhibitor concentration 4.11523 nM
[19] = inhibitor concentration 12.3457 nM
[20] = inhibitor concentration 37.037 nM
[21] = inhibitor concentration 111.111 nM
[22] = inhibitor concentration 333.333 nM
[23] = inhibitor concentration 1000 nM
[24] = inhibitor concentration 3000 nM
[25] = molassamide B (6) compared to molassamide (5)

## C/C=C1\NC(=O)[C@@H](NC(=O)[C@@H](NC(=O)[C@H](C)NC(=O)CCC)[C@@H](C)O)[C@@H](C)OC(=O)[C@H](C(C)C)NC(=O)[C@H](Cc2ccc(O)c(Br)c2)N(C)C(=O)[C@H](Cc2ccccc2)N2C(=O)[C@H](CC[C@H]2O)NC1=O [Molassamide B, molassamide B]
Chymotrypsin; [1]
  IC50: 24.6 nM
Chymotrypsin; [2]
  Mean (RFU/s): 5.208 RFU/s
Chymotrypsin; [3]
  Mean (RFU/s): 5.061 RFU/s
Chymotrypsin; [4]
  Mean (RFU/s): 5.116 RFU/s
Chymotrypsin; [5]
  Mean (RFU/s): 5.104 RFU/s
Chymotrypsin; [6]
  Mean (RFU/s): 4.681 RFU/s
Chymotrypsin; [7]
  Mean (RFU/s): 3.888 RFU/s
Chymotrypsin; [8]
  Mean (RFU/s): 1.754 RFU/s
Chymotrypsin; [9]
  Mean (RFU/s): 0.844 RFU/s
Chymotrypsin; [10]
  Mean (RFU/s): 0.3123 RFU/s
Chymotrypsin; [11]
  Mean (RFU/s): 0.1157 RFU/s
Chymotrypsin; [12]
  Mean (RFU/s): 0 RFU/s
Chymotrypsin; [13]
  IC50: 24.7 nM
Chymotrypsin
  fold increase in potency towards chymotrypsin: thirtyfive
Chymotrypsin; listed as 6
  fold increase in potency towards chymotrypsin: 35 fold
Elastase
  IC50: 11.7 nM
Elastase; [14]
  Mean (RFU/s): 0.846 RFU/s
Elastase; [15]
  Mean (RFU/s): 0.8437 RFU/s
Elastase; [16]
  Mean (RFU/s): 0.8327 RFU/s
Elastase; [17]
  Mean (RFU/s): 0.7837 RFU/s
Elastase; [18]
  Mean (RFU/s): 0.677 RFU/s
Elastase; [19]
  Mean (RFU/s): 0.418 RFU/s
Elastase; [20]
  Mean (RFU/s): 0.1113 RFU/s
Elastase; [21]
  Mean (RFU/s): 0.024 RFU/s
Elastase; [22]
  Mean (RFU/s): 0 RFU/s
Elastase; [23]
  Mean (RFU/s): 0 RFU/s
Elastase; [24]
  Mean (RFU/s): 0 RFU/s
Elastase; [25]
  fold increase in potency towards elastase: three
Proteinase K
  IC50: 5.42 nM
Proteinase K; [14]
  Mean (RFU/s): 6.3 RFU/s
Proteinase K; [15]
  Mean (RFU/s): 6.284 RFU/s
Proteinase K; [16]
  Mean (RFU/s): 6.22 RFU/s
Proteinase K; [17]
  Mean (RFU/s): 5.564 RFU/s
Proteinase K; [18]
  Mean (RFU/s): 3.825 RFU/s
Proteinase K; [19]
  Mean (RFU/s): 1.43 RFU/s
Proteinase K; [20]
  Mean (RFU/s): 0.3433 RFU/s
Proteinase K; [21]
  Mean (RFU/s): 0.1 RFU/s
Proteinase K; [22]
  Mean (RFU/s): 0.03367 RFU/s
Proteinase K; [23]
  Mean (RFU/s): 0 RFU/s
Proteinase K; [24]
  Mean (RFU/s): 0 RFU/s
Proteinase K; [25]
  fold increase in potency towards proteinase K: four

## CC=C1NC(=O)[C@@H](NC(=O)[C@@H](NC(=O)[C@@H]2CCCN2C(=O)CCC)[C@@H](C)O)[C@@H](C)OC(=O)[C@H](C(C)C)NC(=O)[C@H](Cc2ccc(O)cc2)N(C)C(=O)[C@H](Cc2ccccc2)N2C(=O)[C@H](CC[C@H]2O)NC1=O [Rivulariapeptolide 988, rivulariapeptolide 988]
Chymotrypsin; [1]
  IC50: 95.5 nM
Chymotrypsin; [2]
  Mean (RFU/s): 4.956 RFU/s
Chymotrypsin; [3]
  Mean (RFU/s): 4.945 RFU/s
Chymotrypsin; [4]
  Mean (RFU/s): 5.008 RFU/s
Chymotrypsin; [5]
  Mean (RFU/s): 5.099 RFU/s
Chymotrypsin; [6]
  Mean (RFU/s): 4.694 RFU/s
Chymotrypsin; [7]
  Mean (RFU/s): 4.587 RFU/s
Chymotrypsin; [8]
  Mean (RFU/s): 3.41 RFU/s
Chymotrypsin; [9]
  Mean (RFU/s): 2.381 RFU/s
Chymotrypsin; [10]
  Mean (RFU/s): 1.135 RFU/s
Chymotrypsin; [11]
  Mean (RFU/s): 0.4203 RFU/s
Chymotrypsin; [12]
  Mean (RFU/s): 0.1363 RFU/s
Chymotrypsin; [13]
  IC50: 95.5 nM
Elastase
  IC50: 15.3 nM
Elastase; [14]
  Mean (RFU/s): 0.804 RFU/s
Elastase; [15]
  Mean (RFU/s): 0.8127 RFU/s
Elastase; [16]
  Mean (RFU/s): 0.808 RFU/s
Elastase; [17]
  Mean (RFU/s): 0.7693 RFU/s
Elastase; [18]
  Mean (RFU/s): 0.661 RFU/s
Elastase; [19]
  Mean (RFU/s): 0.463 RFU/s
Elastase; [20]
  Mean (RFU/s): 0.2057 RFU/s
Elastase; [21]
  Mean (RFU/s): 0.065 RFU/s
Elastase; [22]
  Mean (RFU/s): 0.018 RFU/s
Elastase; [23]
  Mean (RFU/s): 0 RFU/s
Elastase; [24]
  Mean (RFU/s): 0 RFU/s
Proteinase K
  IC50: 85.5 nM
Proteinase K; [14]
  Mean (RFU/s): 6.083 RFU/s
Proteinase K; [15]
  Mean (RFU/s): 6.104 RFU/s
Proteinase K; [16]
  Mean (RFU/s): 6.172 RFU/s
Proteinase K; [17]
  Mean (RFU/s): 5.959 RFU/s
Proteinase K; [18]
  Mean (RFU/s): 5.86 RFU/s
Proteinase K; [19]
  Mean (RFU/s): 5.64 RFU/s
Proteinase K; [20]
  Mean (RFU/s): 4.799 RFU/s
Proteinase K; [21]
  Mean (RFU/s): 2.395 RFU/s
Proteinase K; [22]
  Mean (RFU/s): 0.4403 RFU/s
Proteinase K; [23]
  Mean (RFU/s): 0.07367 RFU/s
Proteinase K; [24]
  Mean (RFU/s): 0.022 RFU/s

## CC=C1NC(=O)[C@@H](NC(=O)[C@@H](NC(=O)[C@@H]2CCCN2C(=O)CCC)[C@@H](C)OC(=O)C2CCCN2C(=O)CCC)[C@@H](C)OC(=O)[C@H](C(C)C)NC(=O)[C@H](Cc2ccc(O)cc2)N(C)C(=O)[C@H](CC(C)C)N2C(=O)[C@H](CC[C@H]2O)NC1=O (stereo partly shown) [Rivulariapeptolide 1121, rivulariapeptolide 1121]
Chymotrypsin; [1]
  IC50: 35.5 nM
Chymotrypsin; [2]
  Mean (RFU/s): 4.522 RFU/s
Chymotrypsin; [3]
  Mean (RFU/s): 4.745 RFU/s
Chymotrypsin; [4]
  Mean (RFU/s): 4.969 RFU/s
Chymotrypsin; [5]
  Mean (RFU/s): 4.65 RFU/s
Chymotrypsin; [6]
  Mean (RFU/s): 4.6 RFU/s
Chymotrypsin; [7]
  Mean (RFU/s): 4.156 RFU/s
Chymotrypsin; [8]
  Mean (RFU/s): 1.852 RFU/s
Chymotrypsin; [9]
  Mean (RFU/s): 1.527 RFU/s
Chymotrypsin; [10]
  Mean (RFU/s): 0.623 RFU/s
Chymotrypsin; [11]
  Mean (RFU/s): 0.1967 RFU/s
Chymotrypsin; [12]
  Mean (RFU/s): 0 RFU/s
Chymotrypsin; [13]
  IC50: 35.5 nM
Elastase
  IC50: 13.2 nM
Elastase; [14]
  Mean (RFU/s): 0.8433 RFU/s
Elastase; [15]
  Mean (RFU/s): 0.7923 RFU/s
Elastase; [16]
  Mean (RFU/s): 0.7877 RFU/s
Elastase; [17]
  Mean (RFU/s): 0.7943 RFU/s
Elastase; [18]
  Mean (RFU/s): 0.7343 RFU/s
Elastase; [19]
  Mean (RFU/s): 0.4323 RFU/s
Elastase; [20]
  Mean (RFU/s): 0.094 RFU/s
Elastase; [21]
  Mean (RFU/s): 0.02167 RFU/s
Elastase; [22]
  Mean (RFU/s): 0 RFU/s
Elastase; [23]
  Mean (RFU/s): 0 RFU/s
Elastase; [24]
  Mean (RFU/s): 0 RFU/s
Proteinase K
  IC50: 48 nM
Proteinase K; [14]
  Mean (RFU/s): 6.561 RFU/s
Proteinase K; [15]
  Mean (RFU/s): 6.281 RFU/s
Proteinase K; [16]
  Mean (RFU/s): 6.268 RFU/s
Proteinase K; [17]
  Mean (RFU/s): 6.292 RFU/s
Proteinase K; [18]
  Mean (RFU/s): 6.214 RFU/s
Proteinase K; [19]
  Mean (RFU/s): 5.471 RFU/s
Proteinase K; [20]
  Mean (RFU/s): 4.069 RFU/s
Proteinase K; [21]
  Mean (RFU/s): 0.93 RFU/s
Proteinase K; [22]
  Mean (RFU/s): 0.1023 RFU/s
Proteinase K; [23]
  Mean (RFU/s): 0 RFU/s
Proteinase K; [24]
  Mean (RFU/s): 0 RFU/s
